We go through seven compounds from patent US9175003B2, “Substituted azoanthracene derivatives and intermediates for preparation thereof” (TransTech Pharma, LLC, priority 2009, dated 2015).

Each structure is given as a SMILES string.

Usually EC50 stands for the concentration giving half of the maximal effect.

The target of the experiment is human GLP-1 receptor (Homo sapiens (Human), UniProt P43220). Particulars: read-out: Mean EC50; cAMP, HTRF detection, 30 min at 37° C., HEK-293 cells expressing cloned human GLP-1 receptor. (TR-FRET usually uses a lanthanide donor and a delayed reading to cut background.)
Sequence of human GLP-1 receptor (P43220 24-463): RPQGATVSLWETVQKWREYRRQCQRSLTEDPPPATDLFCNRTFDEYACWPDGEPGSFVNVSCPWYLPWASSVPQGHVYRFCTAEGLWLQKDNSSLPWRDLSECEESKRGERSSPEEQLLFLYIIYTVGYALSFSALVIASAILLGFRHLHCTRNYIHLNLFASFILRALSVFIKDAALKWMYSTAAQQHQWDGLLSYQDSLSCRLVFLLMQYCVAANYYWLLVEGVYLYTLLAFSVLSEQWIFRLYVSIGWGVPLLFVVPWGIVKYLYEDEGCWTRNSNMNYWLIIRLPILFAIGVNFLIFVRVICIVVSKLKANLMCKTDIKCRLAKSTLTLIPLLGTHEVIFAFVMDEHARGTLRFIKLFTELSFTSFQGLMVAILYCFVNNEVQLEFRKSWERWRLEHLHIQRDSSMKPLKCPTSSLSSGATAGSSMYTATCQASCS
Regarding `Cc1nccc(-c2ccc(C[C@H](NC(=O)[C@@H]3Cc4cc5c(cc4CN3C(=O)N[C@@H](C)c3ccccc3)O[C@@H](c3ccc(OCc4ccc(Cl)c(Cl)c4)cc3)CO5)C(=O)O)cc2)c1C` [Example 239, (S)-2-{[(3S,8S)-3-[4-(3,4-Dichloro-benzyloxy)-phenyl]-7-((S)-1-phenyl-ethylcarbamoyl)-2,3,6,7,8,9-hexahydro-[1,4]dioxino[2,3-g]isoquinoline-8-carbonyl]-amino}-3-[4-(2,3-dimethyl-pyridin-4-yl)-phenyl]-propionic acid], the EC50 came out at 82 nM. The value for `Cc1nccc(-c2ccc(C[C@H](NC(=O)[C@@H]3Cc4cc5c(cc4CN3C(=O)N[C@H](C)c3ccccc3)O[C@@H](c3ccc(OCc4ccc(Cl)c(Cl)c4)cc3)CO5)C(=O)O)cc2)c1C` [Example 240, (S)-2-{[(3S,8S)-3-[4-(3,4-Dichloro-benzyloxy)-phenyl]-7-((R)-1-phenyl-ethylcarbamoyl)-2,3,6,7,8,9-hexahydro-[1,4]dioxino[2,3-g]isoquinoline-8-carbonyl]-amino}-3-[4-(2,3-dimethyl-pyridin-4-yl)-phenyl]-propionic acid] was 56 nM.

For `Cc1ccc(NC(=O)N2Cc3cc4c(cc3C[C@H]2C(=O)N[C@@H](Cc2ccc(-c3ccnc(C)c3C)cc2)C(=O)O)OC[C@H](c2ccc(OCc3ccc(Cl)c(Cl)c3)cc2)O4)cc1` [Example 243, (S)-2-({(3S,8S)-3-[4-(3,4-Dichloro-benzyloxy)-phenyl]-7-p-tolylcarbamoyl-2,3,6,7,8,9-hexahydro-[1,4]dioxino[2,3-g]isoquinoline-8-carbonyl}-amino)-3-[4-(2,3-dimethyl-pyridin-4-yl)-phenyl]-propionic acid], the EC50 was 92 nM.

Turning to `CC[C@H](NC(=O)N1Cc2cc3c(cc2C[C@H]1C(=O)N[C@@H](Cc1ccc(-c2ccnc(C)c2C)cc1)C(=O)O)OC[C@H](c1ccc(OCc2ccc(Cl)c(Cl)c2)cc1)O3)c1ccccc1` [Example 245, (S)-2-{[(3S,8S)-3-[4-(3,4-Dichloro-benzyloxy)-phenyl]-7-((S)-1-phenyl-propylcarbamoyl)-2,3,6,7,8,9-hexahydro-[1,4]dioxino[2,3-g]isoquinoline-8-carbonyl]-amino}-3-[4-(2,3-dimethyl-pyridin-4-yl)-phenyl]-propionic acid], the EC50 was 203 nM. Then `Cc1nccc(-c2ccc(C[C@H](NC(=O)[C@@H]3Cc4cc5c(cc4CN3C(=O)N[C@H](C)c3ccc(F)cc3)O[C@@H](c3ccc(OCc4ccc(Cl)c(Cl)c4)cc3)CO5)C(=O)O)cc2)c1C` [Example 247, (S)-2-({(3S,8S)-3-[4-(3,4-Dichloro-benzyloxy)-phenyl]-7-[(R)-1-(4-fluoro-phenyl)-ethylcarbamoyl]-2,3,6,7,8,9-hexahydro-[1,4]dioxino[2,3-g]isoquinoline-8-carbonyl}-amino)-3-[4-(2,3-dimethyl-pyridin-4-yl)-phenyl]-propionic acid], with 175 nM. Take `Cc1nccc(-c2ccc(C[C@H](NC(=O)[C@@H]3Cc4cc5c(cc4CN3C(=O)NC3CCCC3)O[C@@H](c3ccc(OCc4ccc(Cl)c(Cl)c4)cc3)CO5)C(=O)O)cc2)c1C` [Example 248, (S)-2-({(3S,8S)-7-Cyclopentylcarbamoyl-3-[4-(3,4-dichloro-benzyloxy)-phenyl]-2,3,6,7,8,9-hexahydro-[1,4]dioxino[2,3-g]isoquinoline-8-carbonyl}-amino)-3-[4-(2,3-dimethyl-pyridin-4-yl)-phenyl]-propionic acid]: the EC50 stood at 187 nM. For `Cc1nccc(-c2ccc(C[C@H](NC(=O)[C@@H]3Cc4cc5c(cc4CN3C(=O)NC(C)C)O[C@@H](c3ccc(OCc4ccc(Cl)c(Cl)c4)cc3)CO5)C(=O)O)cc2)c1C` [Example 250, (S)-2-({(3S,8S)-3-[4-(3,4-Dichloro-benzyloxy)-phenyl]-7-isopropylcarbamoyl-2,3,6,7,8,9-hexahydro-[1,4]dioxino[2,3-g]isoquinoline-8-carbonyl}-amino)-3-[4-(2,3-dimethyl-pyridin-4-yl)-phenyl]-propionic acid], the EC50 turned out to be 171 nM.
